Test results reported in US20110097264A1, “RADIOLABELING METHOD USING MULTIVALENT GLYCOLIGANDS AS HEPATIC RECEPTOR IMAGING AGENT” (Institute of Nuclear Energy Research Atomic Energy Council, …, priority 2009, published 2011).
pIC50: −log10 of the molar value.

Target: T1, ASGPR (Mus musculus, UniProt P24721+P34927)
T1 construct: host or cells: murine hepatocytes (primary, plated)
T1 sequence (P34927 1-284): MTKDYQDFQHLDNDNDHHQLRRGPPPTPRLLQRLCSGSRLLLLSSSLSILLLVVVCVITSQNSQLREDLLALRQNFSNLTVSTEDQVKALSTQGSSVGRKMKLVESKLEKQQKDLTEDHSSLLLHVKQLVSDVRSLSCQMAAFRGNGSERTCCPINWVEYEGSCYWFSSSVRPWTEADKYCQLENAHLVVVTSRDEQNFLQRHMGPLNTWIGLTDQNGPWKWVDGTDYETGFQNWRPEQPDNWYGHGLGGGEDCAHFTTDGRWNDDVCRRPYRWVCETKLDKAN
T1 sequence (P24721 1-301): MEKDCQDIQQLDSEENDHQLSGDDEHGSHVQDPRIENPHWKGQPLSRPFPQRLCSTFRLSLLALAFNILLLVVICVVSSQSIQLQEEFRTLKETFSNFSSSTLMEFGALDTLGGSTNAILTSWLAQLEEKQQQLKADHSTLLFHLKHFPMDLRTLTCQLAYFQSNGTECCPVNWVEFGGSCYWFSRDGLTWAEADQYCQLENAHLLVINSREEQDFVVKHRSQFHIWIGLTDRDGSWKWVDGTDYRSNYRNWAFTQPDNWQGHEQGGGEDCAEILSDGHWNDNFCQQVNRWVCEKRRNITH
Assay: Binding strength of saccharide chain peptide and murine hepatocyte (competition with Eu-ASOR, time-resolved fluorescence)
Conditions: for pIC50: murine hepatocyte, Eu-ASOR 10 nM, 5 mM calcium chloride, 1 hr
Experimental: With Eu-asialo-orosomucoid (Eu-ASOR) as reference material, the binding strength of saccharide chain peptide and murine hepatocyte is determined by comparing whether the binding degree of saccharide chain peptides, such as DCM-Lys(ah-GalNAc)3, DCM-Lys(Gah-GalNAc)3, DCM-Lys(ah-Lac)3, AHA-Asp[DCM-Lys(ah-Lac)3]2 with murine hepatocyte is higher than that of Eu-ASOR or not, in which the binding degree is expressed by IC50 (concentration of 50% inhibition), and the lower the IC50 is, the higher the binding degree is. The murine hepatocyte (from Lonza Biotechnology Company, Maryland) is plated in a 24-well plate in advance, and the reaction occurs in each well, into which (i) Eu-ASOR 10 nM (ii) hepatocyte basic medium with 5 mM calcium chloride, and (iii) five different concentrations of saccharide chain peptide of 1 uM-0.8 nM are added. After culturing under shaking for 1 hr, the substance that has not been bound to hepatocyte is removed by washing with the hepatocyte basic medium containing calcium chloride. Time-resolved fluorescence spectroscopy is preformed, that is, an enhancement solution (15
uM β-naphthoyl trifluoroacetone, 50 uM tri-n-octyl-phosphine oxide, 0.1 M potassium hydrogen phthalate, 0.1% Triton X-100 in 0.1 M acetic acid, pH 3.2) is added. The enhancement solution reacts with Eu^3+ to form a Eu chelate, which can emit a light of 615 nm when being excited at 340 nm. With the logarithm of the concentration of saccharide chain peptide as X axis, the emitted fluorescence value as Y axis, the fluorescence value without adding glycopeptide being set as 100%, the IC50 of each saccharide chain peptide can be calculated accordingly.

SMILES	pIC50	binding with ASGPR relative to YEE or YDD (compared with YEE or YDD, from Table 1) [times]
NCCCCCC(=O)N[C@@H](CC(=O)NCCCC[C@@H](C(=O)NCCCCCCOC1O[C@H](CO)[C@@H](O[C@@H]2O[C@H](CO)[C@H](O)[C@H](O)[C@H]2O)[C@H](O)[C@H]1O)N(CC(=O)NCCCCCCOC1O[C@H](CO)[C@@H](O[C@@H]2O[C@H](CO)[C@H](O)[C@H](O)[C@H]2O)[C@H](O)[C@H]1O)CC(=O)NCCCCCCOC1O[C@H](CO)[C@@H](O[C@@H]2O[C@H](CO)[C@H](O)[C@H](O)[C@H]2O)[C@H](O)[C@H]1O)C(=O)NCCCC[C@@H](C(=O)NCCCCCCOC1O[C@H](CO)[C@@H](O[C@@H]2O[C@H](CO)[C@H](O)[C@H](O)[C@H]2O)[C@H](O)[C@H]1O)N(CC(=O)NCCCCCCOC1O[C@H](CO)[C@@H](O[C@@H]2O[C@H](CO)[C@H](O)[C@H](O)[C@H]2O)[C@H](O)[C@H]1O)CC(=O)NCCCCCCOC1O[C@H](CO)[C@@H](O[C@@H]2O[C@H](CO)[C@H](O)[C@H](O)[C@H]2O)[C@H](O)[C@H]1O (stereo partly drawn) [AHA-Asp[DCM-Lys(ahLac)3]2, AHA-Asp[DCM-Lys(ah-Lac)3]2]	8.00	–
CC(=O)N[C@H]1[C@H](OCCCCCCNC(=O)CC[C@H](NC(=O)[C@H](CCC(=O)NCCCCCCO[C@@H]2O[C@H](CO)[C@H](O)[C@H](O)[C@H]2NC(C)=O)NC(=O)[C@@H](N)Cc2ccc(O)cc2)C(=O)NCCCCCCO[C@@H]2O[C@H](CO)[C@H](O)[C@H](O)[C@H]2NC(C)=O)O[C@H](CO)[C@H](O)[C@@H]1O [YEE(ahGalNAc)3, reference compound]	8.00	–
CC(=O)N[C@H]1[C@H](OCCCCCCNC(=O)CNC(=O)CN(CC(=O)NCC(=O)NCCCCCCO[C@@H]2O[C@H](CO)[C@H](O)[C@H](O)[C@H]2NC(C)=O)[C@@H](CCCCN)C(=O)NCC(=O)NCCCCCCO[C@@H]2O[C@H](CO)[C@H](O)[C@H](O)[C@H]2NC(C)=O)O[C@H](CO)[C@H](O)[C@@H]1O [DCM-Lys(GahGalNAc)3]	–	10
